Results as given in patent US20220323406A1, “METHODS AND COMPOSITIONS FOR DIFFERENTIATING STEM CELLS” (Massachusetts Institute of Technology, priority 2019, published 2022).

How the values were obtained:
[1] = tested on: ENR+CD organoids (ISC to Paneth cell differentiation); assay: Primary screen: basal (non-stimulated) lysozyme secretion LYZ.NS, 2.5-D 384-well ENR+CD organoid differentiation; format: cell-based, mouse
From the text: (§1) High-throughput screening.

[2] = tested on: ENR+CD organoids (ISC to Paneth cell differentiation); assay: Primary screen: CCh-stimulated lysozyme secretion LYZ.S, 2.5-D 384-well ENR+CD organoid differentiation; format: cell-based, mouse; conditions: primary screen
From the text: as §1

[3] = tested on: ENR+CD organoids; assay: Primary screen: ATP (CellTiter-Glo 3D, CTG) cell number/viability, 2.5-D 384-well ENR+CD organoids;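 also: compounds given at plating and again on day 3 over a 6-day differentiation from ENR+CV stem-cell-enriched precursors, ATP measured on day 6, plate median as control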
[4] = primary screen, dose 0.08 uM, FC relative to plate median
[5] = primary screen, dose 0.08 uM, standard z score
[6] = primary screen, dose 0.40 uM, FC relative to plate median
[7] = primary screen, dose 0.40 uM, standard z score
[8] = primary screen, dose 2.00 uM, FC relative to plate median
[9] = primary screen, dose 2.00 uM, standard z score
[10] = primary screen, dose 10.00 uM, FC relative to plate median
[11] = primary screen, dose 10.00 uM, standard z score
[12] = dose 0.08 uM, FC relative to plate median
[13] = dose 0.40 uM, FC relative to plate median
[14] = dose 2.00 uM, FC relative to plate median
[15] = dose 10.00 uM, FC relative to plate median
[16] = primary screen, standard z score, dose 0.08 uM
[17] = primary screen, standard z score, dose 0.40 uM
[18] = primary screen, standard z score, dose 2.00 uM
[19] = primary screen, standard z score, dose 10.00 uM

SMILES	Dose.FC.LYZ.NS [1, 4]	Z.LYZ.NS [1, 5]	Dose.FC.LYZ.NS [1, 6]	Z.LYZ.NS [1, 7]	Dose.FC.LYZ.NS [1, 8]	Z.LYZ.NS [1, 9]	Dose.FC.LYZ.NS [1, 10]	Z.LYZ.NS [1, 11]	Dose.FC.LYZ.S [2, 12]	Dose.FC.LYZ.S [2, 13]	Dose.FC.LYZ.S [2, 14]	Dose.FC.LYZ.S [2, 15]	Dose.FC.CTG [3, 4]	Z.CTG [3, 5]	Dose.FC.CTG [3, 6]	Z.CTG [3, 7]	Dose.FC.CTG [3, 8]	Z.CTG [3, 9]	Dose.FC.CTG [3, 10]	Z.CTG [3, 11]	further results
CN1CCC(CNc2ccc3ncc(-c4cccc(OC(F)(F)F)c4)n3n2)CC1 [SGI-1776free base]	0.116 log2 fold change	1.013	0.042 log2 fold change	0.362	0.012 log2 fold change	0.108	−0.205 log2 fold change	−1.784	0.159 log2 fold change	0.088 log2 fold change	0.011 log2 fold change	−0.317 log2 fold change	0.170 log2 fold change	0.407	0.278 log2 fold change	0.665	0.212 log2 fold change	0.506	−1.033 log2 fold change	−2.468	
COc1ccc(C(=O)Nc2sc3c(c2C(N)=O)CCCC3)cc1OC [TCS 359]	0.085 log2 fold change	0.742	0.058 log2 fold change	0.502	0.018 log2 fold change	0.156	−0.008 log2 fold change	−0.072	0.098 log2 fold change	0.069 log2 fold change	−0.006 log2 fold change	0.026 log2 fold change	0.150 log2 fold change	0.358	0.250 log2 fold change	0.598	0.050 log2 fold change	0.119	−0.089 log2 fold change	−0.212	
CC1C(=O)OC2C(O)C34C5CC(C(C)(C)C)C36C(OC(=O)C6O)OC4(C(=O)O5)C12O (stereo not shown) [Ginkgolide B]																					Dose.FC.LYZ.NS ([1]; primary screen, dose 0.08 uM): 0.041 log2 fold change; Dose.FC.LYZ.NS ([1]; primary screen, dose 0.40 uM): 0.109 log2 fold change; Dose.FC.LYZ.NS ([1]; primary screen, dose 2.00 uM): 0.061 log2 fold change; Dose.FC.LYZ.NS ([1]; primary screen, dose 10.00 uM): −0.037 log2 fold change; Z.LYZ.NS [1, 16]: 0.353; Z.LYZ.NS [1, 17]: 0.950; Z.LYZ.NS [1, 18]: 0.528; Z.LYZ.NS [1, 19]: −0.326; Dose.FC.LYZ.S ([2]; dose 0.08 uM): 0.034 log2 fold change; Dose.FC.LYZ.S ([2]; dose 0.40 uM): 0.047 log2 fold change; Dose.FC.LYZ.S ([2]; dose 2.00 uM): 0.033 log2 fold change; Dose.FC.LYZ.S ([2]; dose 10.00 uM): −0.035 log2 fold change; Dose.FC.CTG ([3]; primary screen, dose 0.08 uM): −0.076 log2 fold change; Dose.FC.CTG ([3]; primary screen, dose 0.40 uM): 0.034 log2 fold change; Dose.FC.CTG ([3]; primary screen, dose 2.00 uM): −0.154 log2 fold change; Dose.FC.CTG ([3]; primary screen, dose 10.00 uM): 0.177 log2 fold change; Z.CTG [3, 16]: −0.182; Z.CTG [3, 17]: 0.081; Z.CTG [3, 18]: −0.369; Z.CTG [3, 19]: 0.422
Cn1c(=O)cc(N2CCC[C@@H](N)C2)n(Cc2cc(F)ccc2C#N)c1=O [Trelagliptin]																					Dose.FC.LYZ.NS ([1]; primary screen, dose 0.08 uM): 0.007 log2 fold change; Z.LYZ.NS (standard z score) ([1]; primary screen, dose 0.08 uM): 0.059; Dose.FC.LYZ.NS ([1]; primary screen, dose 0.40 uM): −0.019 log2 fold change; Z.LYZ.NS (standard z score) ([1]; primary screen, dose 0.40 uM): −0.166; Dose.FC.LYZ.NS ([1]; primary screen, dose 2.00 uM): −0.033 log2 fold change; Z.LYZ.NS (standard z score) ([1]; primary screen, dose 2.00 uM): −0.292; Dose.FC.LYZ.NS ([1]; primary screen, dose 10.00 uM): −0.050 log2 fold change; Z.LYZ.NS (standard z score) ([1]; primary screen, dose 10.00 uM): −0.433; Dose.FC.LYZ.S ([2]; dose 0.08 uM): 0.020 log2 fold change; Dose.FC.LYZ.S ([2]; dose 0.40 uM): 0.058 log2 fold change; Dose.FC.LYZ.S ([2]; dose 2.00 uM): −0.022 log2 fold change; Dose.FC.LYZ.S ([2]; dose 10.00 uM): −0.109 log2 fold change; Dose.FC.CTG ([3]; primary screen, dose 0.08 uM): 0.202 log2 fold change; Dose.FC.CTG ([3]; primary screen, dose 0.40 uM): −0.076 log2 fold change; Dose.FC.CTG ([3]; primary screen, dose 2.00 uM): 0.050 log2 fold change; Dose.FC.CTG ([3]; primary screen, dose 10.00 uM): 0.135 log2 fold change
